{
  "source": "paper PMC5896380",
  "about": "“Selective imaging of cathepsin L in breast cancer by fluorescent activity-based probes” (Chemical Science, 2018)",
  "key": {"cathepsin S": {"target": "T1, cathepsin S (Homo sapiens, UniProt P25774)", "T1 construct": "made in house", "T1 sequence (P25774 115-331)": "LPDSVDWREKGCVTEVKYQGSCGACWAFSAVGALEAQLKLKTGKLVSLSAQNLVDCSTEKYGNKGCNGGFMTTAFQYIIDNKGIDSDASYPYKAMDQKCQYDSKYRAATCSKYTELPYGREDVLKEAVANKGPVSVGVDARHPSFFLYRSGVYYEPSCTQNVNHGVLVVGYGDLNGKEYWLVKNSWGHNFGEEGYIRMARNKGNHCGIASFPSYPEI", "assay": "kobs/I of activity-based probes, cathepsin S", "type": "biochemical", "settings": "Fig. 6A; pseudo-first order, probe at least 5-fold excess over cathepsin, 100 μM ACC substrate; pH 5.5, 37 °C; triplicate, SD below 20%", "description": "All kinetic experiments were performed using fMax (Molecular Devices) and CLARIOStar (BMG LABTECH) spectrofluorimeters operating in kinetic mode using 96-well plates. ACC-labeled substrates were screened using 355 nm and 460 nm wavelengths (excitation and emission, respectively). […] The buffer was prepared at room temperature and the enzyme kinetic studies were performed at 37 °C.\nFor the kinetic studies, five recombinant human cathepsins (B, L, V, K and S) were expressed and purified and active site titrated using an E64 inhibitor. The kobs/I parameter was measured under pseudo-first order kinetic conditions, as described.[40] The cathepsin of interest was mixed with various concentrations of probe (at least 5-fold excess over cathepsin) and 100 μM ACC-fluorescence substrate. The experiments were repeated at least three times, and the results are presented as an average. The SDs were below 20%."}, "[1]": {"tested_on": "cathepsin B in MDA-MB-231 cells", "assay": "Weighted colocalization of probe with cathepsin B antibody, confocal microscopy", "type": "cell-based, human", "settings": "CatB ab (8h), 1 μM probe", "description": "Glass coverslips 15 mm in diameter were placed in 12-well plates and coated with poly-D-lysine (500 μL, 1 mg mL^–1 in water, Specialty Media) for 30 minutes. The poly-D-lysine was aspirated and the coverslips were washed twice with sterile water and air-dried. Next, low passage MDA-MB-231 cells in DMEM (100 000 cells per mL) were added to wells (1 mL per well) and allowed to attach for 2 hours. Cells were then treated with Cy5-labeled probes (1 μM) for 8 or 24 hours. The control cells were preincubated with E64d for 2 hours. After various incubation times, the medium was removed and the cells were gently washed twice with DPBS (1 mL each). The cells were then fixed with ice-cold methanol (500 μL per well) for 15 minutes at –20 °C. […] Cathepsins L and B were detected by primary goat anti-hCathepsin L (R&D, AF952, 0.2 mg mL^–1, 1 : 200) and goat anti-hCathepsin B (R&D, AF953, 0.2 mg mL^–1, 1 : 80), respectively, in 3% BSA in DPBS (with 0.5% Triton-X, v/v) for 2 hours at room temperature. […] Next, the cells were washed twice with DPBS, and coverslips were mounted using Vectashield mounting medium fluorescence containing DAPI (Vector Lab. H-1000). […] All images were acquired in .tiff format in MetaMorph software or in .lsm format in ZEN software and analyzed using ImageJ and ZEN software. […]"}, "[2]": {"tested_on": "cathepsins L and B in MDA-MB-231 cells", "assay": "Cathepsin labeling in MDA-MB-231 cells by SDS-PAGE and western blotting", "type": "cell-based, human", "settings": "MDA-MB-231 cells", "description": "Low passage MDA-MB-231 cells were seeded on 12-well plates (200 000 cells per well per 1 mL of medium) and cultured in Dulbecco’s Modification of Eagle’s Medium (DMEM) supplemented with 10% fetal bovine serum, 2 mM of L-glutamine, 100 units per mL penicillin and 100 μg mL^–1 streptomycin. […] To control for non-specific binding, the cells were preincubated with E64d (25 μM) for 2 hours prior to probe addition. At various time points, the medium was aspirated and the cells were gently washed twice with 1 mL of Dulbecco’s Phosphate-Buffered Saline (DPBS) and then trypsinized, harvested and centrifuged for 10 min (500 × g). The supernatants were removed by aspiration and the pellets washed with 1 mL of DPBS and centrifuged (5 min, 500 × g). The supernatants were again removed and the pellets solubilized in 100 μL 1× SDS/DTT and then boiled for 5 min. Each sample was then cooled to room temperature and sonicated (Branson Sonifier 250, duty cycle: 50, output control: 5, cycles: 5) and then 30 μL was loaded on 4–12% Bis-Tris Plus gels and run for 30 min at 200 V with a SDS-PAGE Standards/Broad Range ladder. Proteins were transferred to a 0.2 μm nitrocellulose membrane for 1 hour at 10 V and then Ponceau staining was used to verify equal loading. Membranes were blocked with 2.5% BSA in Tris-buffered saline/0.1% v/v Tween 20 (TBS-T) for 1 hour at room temperature. Cathepsins L and B were detected by primary goat anti-hCathepsin L (R&D, AF952, 0.2 mg mL^–1, 1 : 2000) and goat anti-hCathepsin B (R&D, AF953, 0.2 mg mL^–1, 1 : 1000) antibodies, respectively, followed by incubation with a secondary antibody (IRDye® 800CW, LI-COR, donkey anti-goat, 1 : 10 000). The membranes were incubated with primary antibodies for 2 hours, and with (fluorescent) secondary antibodies for 30 min (both in TBS-T at room temperature). The fluorescence was read at 700 nm (Cyanine5; excitation 685 nm) and 800 nm (secondary antibody; excitation 785 nm) using an Odyssey fluorescence imaging system (LI-COR). The images were analyzed using Image Studio software."}},
  "data": [
    {"substance": "Cy5-6-ahx-His-DThr-Phe(F5)-Cys(Bzl)-AOMK [MP-cL3]", "values": [
      {"measurement": "kobs/I Cath-S", "setting": "cathepsin S", "value": 225, "unit": "M⁻¹ s⁻¹"},
      {"measurement": "weighted colocalization coefficient", "setting": "[1]; single cells analysis, 68 single cells", "value": 0.635},
      {"measurement": "weighted colocalization coefficient", "setting": "[1]; whole pictures analysis, 7 images", "value": 0.646},
      {"measurement": "incubation time up to which only cathepsin L is labeled (no labeling of cathepsin B)", "setting": "[2]; 1 μM probe", "value": "up to 8 hours"},
      {"measurement": "incubation time after which probe labeling is detectable in cells", "setting": "[2]; 1 μM probe, 0–18 hours", "value": 1, "unit": "h"},
      {"measurement": "incubation time up to which only cathepsin L is labeled", "setting": "[2]; 5 μM probe, 2-16 hours", "value": "up to two"}
    ]}
  ]
}
